# Data reported in PubChem BioAssay (NCI).
# “And” between values parts separate entries of the source, which are not always exact repeats. Equal values may be shown once.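 Following 48 hours of exposure in 96-well plates, responses at five concentrations were used to interpolate endpoints linearly. At the TGI there is no net growth.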
# What was measured:
# HOP-18 NSCLC = assay: NCI anticancer screen, dose series, 48 h
# RXF-631 renal = assay: NCI anticancer screen, dose series, 48 h
compound,measurement,setting,value
C#C[C@]1(O)CC[C@H]2[C@@H]3CCc4cc(O)ccc4[C@H]3CC[C@@]21C,TGI,HOP-18 NSCLC,> 100 µM
COc1ccc(CCn2cncn2)cc1,TGI,RXF-631 renal,> 100 µM
O=c1c2cc(O)ccc2n2nnc3ccc(NCCNCCO)c1c32,TGI,HOP-18 NSCLC,> 100 µM and 69.1 µM
